The text below walks through data of patent publication US11331282B2, “Ophthalmic composition containing clathrated antioxidant substance, and use thereof” (TK Health Research, Co. Ltd., priority 2017, dated 2022).

In series [1] the test system is dry eye mouse model. Put plainly: Change in tear volume by Schirmer's test in BAC dry eye mouse model. It is filed as in vivo. The settings on record: oral intake 200 mg/kg, two weeks, Day 28, Example 2. The procedure:
A dry eye mouse model was created by eye drop treatment with benzalkonium chloride (also denoted as BAC).
After two weeks of continuous BAC treatment of mice, additional BAC treatment and eye drop treatment with water soluble astaxanthin or water soluble control (vehicle, γ-cyclodextrin only) were continued for two weeks. A group of mice applied with only PBS eye drops was used as a […].
The change in the tear volume in the mouse model was measured by Schirmer's test. The tear volume was determined as a relative tear volume (normal tear volume (filter moving distance): 7.17±1.35 mm) when normal tear volume was 100. Statistical processing: ANOVA, Student's t-test.
A dry eye mouse model was created in the same manner described in Example 1. […] The change in tear volume was measured by Schirmer's test in the same manner as Example 1. The goblet cells were also counted in the same manner as Example 1.
A dry eye mouse model was created in the same manner as Example 1. Subsequently, water-soluble astaxanthin eye drops and DMSO dissolved astaxanthin eye drops were applied for two weeks, and the change in the tear volume was measured by Schirmer's test in the same manner as Example 1. The goblet cells were also counted in the same manner as Example 1. […]
A change in the tear volume in the mouse model is measured by Schirmer's test. […]

Series [2] has as its system ocular surface goblet cells of a dry eye mouse model. Nature of the series: Goblet cell count by PAS stain in BAC dry eye mouse model. It is filed as in vivo. The conditions noted are these: oral administration for two weeks. How it is done: To find the effect of astaxanthin eye drops on ocular surface goblet cells of a dry eye mouse model, histological analysis was performed after two weeks of astaxanthin eye drops, and the number of goblet cells was counted by counting the cells stained red by PAS stain.
A dry eye mouse model was created in the same manner described in Example 1. Subsequently, astaxanthin eye drops were applied and astaxanthin was orally administered (oral intake astaxanthin, also denoted as oAsx) for two weeks. The change in tear volume was measured by Schirmer's test in the same manner as Example 1. The goblet cells were also counted in the same manner as Example 1.
A dry eye mouse model was created in the same manner as Example 1. Subsequently, water-soluble astaxanthin eye drops and DMSO dissolved astaxanthin eye drops were applied for two weeks, and the change in the tear volume was measured by Schirmer's test in the same manner as Example 1. The goblet cells were also counted in the same manner as Example 1.
A change in the tear volume in the mouse model is measured by Schirmer's test. The tear volume is determined as a relative tear volume (normal tear volume (filter moving distance): 7.17±1.35 mm) when normal tear volume is 100. Statistical processing: ANOVA, Student's t-test. […]

Series [3] can be described thus: Solubilization testing by filtration (colour of filtrate, 0.45 μm filter). It is filed as physicochemical.
Description: The astaxanthin concentration in the filtrate can be measured by measuring the absorbance of the wavelength 478 nm using an absorption (spectrophoto)meter. […] Astaxanthin was dissolved in DMSO, and the final concentration was adjusted to 6.25, 12.5, 25, 50, and 100 μg/ml with Milli-Q water. After 0 point correction with a solvent, 480 nm absorbance of each astaxanthin solution was measured, and calibration curves were drawn. The concentration of water soluble astaxanthin solution was found from the 480 nm absorbance measurement value of the water soluble astaxanthin solution based thereon. […] Solubilization of lycopene and canthaxanthin was confirmed by filtration with a 0.45 μm filter.

`CC1=C(/C=C/C(C)=C/C=C/C(C)=C/C=C/C=C(C)/C=C/C=C(C)/C=C/C2=C(C)C(=O)[C@@H](O)CC2(C)C)C(C)(C)C[C@H](O)C1=O` [astaxanthin]: the “tear volume (relative to normal tear volume)” value in series [1] was “increased only slightly”. For the same compound, the goblet cell count entry in series [2] is given as “recovery in the goblet cell count was not observed”.

Consider canthaxanthin, for which the “solubilization in aqueous solvent (remains in filtrate after filtration)” value in series [3] is “Successful water-solubilization”.
